Assay results as given in patent publication EP0322391A1, “New phenylalkylamine derivatives” (priority 1987, dated 1989).
Where two headings read alike, the source gives them in different places.

System: OTMN-induced tremor in rat
Assay: Potentiation of oxotremorine (OTMN)-induced tremor in rat (potentiation of cholinergic responses)
Type: in vivo
Conditions: for minimal effective dose: Rattus norvegicus, ip, read-out: Potentiation of OTMN-induced tremor in rat
Procedure: Potentiation of cholinergic responses
Male rats (Sprague Dawley Alab Laboratorietjänst AB, Sollentuna, Sweden) weighing 150-180 g, 35-40 days of age, were used. The animals were allowed free access to food (R3, Ewos AB, Södertälje, Sweden) and water until the start of the experiments. The test compounds were injected intraperitoneally (i.p.) 30 minutes before injection of the muscarine agonist oxotremorine (OTM) into the neck (s.c.). Tremor intensity was assessed visually for a 60 minutes period following the injection of OTMN in rat housed in Macrolon cages (25x25x30 cm) (three per cage). The threshold dose of OTMN for eliciting tremor in rat is about 200 µg/kg.
Tremor intensity was scored using the following rating scale: 0 = no tremor; 1 = slight tremor (moderate, discontinuous tremor; 2 = strong tremor (intense, continuous tremor involving the whole body). The animals were scored 5, 10, 15, 30 and 60 minutes after injection of OTMN. The tremor was scored for a period of 30 seconds.
The values for each observation were summed over the entire observation period (5-60 minutes) and their median values for each group were calculated (total median score). Mann-Whitney U-test (two-tailed) was used to determine differences between the control OTMN group and test groups receiving the compounds + OTMN. […].
The lowest dose causing a significant (p<0.05) potentiation of the OTMN response was determined from log-dose response curves.

[1] = lowest dose causing a significant (p<0.05) potentiation of the OTMN response, from log-dose response curves, test compound i.p. 30 minutes before oxotremorine s.c., male Sprague Dawley rats, tremor scored 5-60 minutes

SMILES | minimal effective dose [1] | other results
CCC(N)CC(=O)C(C)(C)Cc1ccc(F)cc1.O=C(O)C(=O)O (racemic) [Example 1, 5-amino-2,2-dimethyl-1-(4-fluorophenyl)-3-heptanone oxalate] | 0.63 mg/kg | 
CC(N)C(=O)OC(C)(C)Cc1ccc(Cl)cc1 (centres unmarked) [Alaproclate, alaproclate, reference compound] |  | minimal effective dose: 5 mg/kg
CCC(N)CC(=O)C(C)(C)Cc1ccc(F)cc1 (centres unmarked) [Example 5, 5-amino-2,2-dimethyl-1-(4-fluorophenyl)-3-heptanone] | 0.63 mg/kg | 
CCC(N)CC(=O)C(C)(C)Cc1ccc(F)cc1 (centres unmarked) [Example 6, 5-amino-2,2-dimethyl-1-(4-fluorophenyl)-3-heptanone] |  | Potentiation of OTMN-induced tremor in rat [1]: 0.63 mg/kg
CCC(N)CC(O)C(C)(C)Cc1ccc(F)cc1.O=C(O)C(=O)O (centres unmarked) [Example 7, 5-Amino-2,2-dimethyl-1-(4-fluorophenyl)-3-heptanol oxalate] | 2.5 mg/kg | 
CC(C)C(N)CC(O)C(C)(C)Cc1ccc(F)cc1.O=C(O)C(=O)O (centres unmarked) [Example 8, 5-Amino-1-(4-fluorophenyl)-2,2,6-trimethyl-3-heptanol oxalate] | 10 mg/kg | 
CCCCCC(N)CC(O)C(C)(C)Cc1ccc(F)cc1.O=C(O)C(=O)O (centres unmarked) [Example 9, 5-Amino-2,2-dimethyl-1-(4-fluorophenyl)-3-decanol oxalate] | 5 mg/kg | 
CC(C)C(N)CC(=O)C(C)(C)Cc1ccc(F)cc1.O=C(O)C(=O)O (centres unmarked) [Example 12, 5-Amino-1-(4-fluorophenyl)-2,2,6-trimethyl-3-heptanone oxalate] | 2.5 mg/kg | 
